Legend:
[1] = tested on: cancer patients; well (non-cancer) adult and child recipients; conditions: cited from earlier work
[2] = tested on: mouse strains (C57BL/6J, BALB/cJ, CD-i); experiment: Tolerability (mortality) of soluble TQL-1055 formulations across three mouse strains; assay type: in vivo
Experimental: The tolerability of soluble TQL-1055 formulations, including TQL-1055 FA (free acid) HP-β-CD and TQL-1055 ISKS (in situ potassium salt) HP-β-CD formulations, administered over a range of doses was examined across three mouse strains (C57BL/6J, BALB/cJ, CD-i). The following experimental groups were used. I.M. administration was performed.
The mortality rate 7 days after injection was observed.
A Logrank (Mantel-Cox) test was performed to assess survival distributions of the foregoing groups.

CD-i mice = experiment: TQL-1055 HP-β-CD dose ranging study: weight loss and survival; conditions: for Deaths (D 7) / Deaths (D 21): CD-1 mice, I.M.; for Deaths (D 7): post dose 1; for Deaths (D 21): post dose 2 (day 14)
[3] = no antigen, HPβCD dose equivalent to group 4
[4] = with 0.1 μg PR8 HA, HPβCD dose equivalent to group 4

Question: Which tolerated dose ([1]; cancer patients, above it significant local and systemic side effects arise) does the source give for QS-21 here?
Answer: 100 to 150 µg

Question: And the “highest practical tolerable dose” value ([1]; well (non-cancer) adult and child recipients)?
Answer: 25 to 50 µg

Question: What about the Deaths ([2]; BALB/cJ mice, 20 μg I.M., 7 days after injection) of the same molecule?
Answer: 0/10

Question: And the Deaths ([2]; BALB/cJ mice, 40 μg I.M., 7 days after injection)?
Answer: 0/10

Question: And the Deaths ([2]; BALB/cJ mice, 60 μg I.M., 7 days after injection)?
Answer: 0/10

Question: And the Deaths ([2]; BALB/cJ mice, 80 μg I.M., 7 days after injection)?
Answer: 0/10

Question: And the Deaths ([2]; BALB/cJ mice, 100 μg I.M., 7 days after injection)?
Answer: 0/10

Question: What about the Deaths ([2]; C57BL/6J mice, 20 μg I.M., 7 days after injection) of the same molecule?
Answer: 0/10

Question: And the Deaths ([2]; C57BL/6J mice, 40 μg I.M., 7 days after injection)?
Answer: 2/10

Question: And the Deaths ([2]; C57BL/6J mice, 60 μg I.M., 7 days after injection)?
Answer: 0/10

Question: And the Deaths ([2]; C57BL/6J mice, 80 μg I.M., 7 days after injection)?
Answer: 5/10

Question: What about the Deaths ([2]; C57BL/6J mice, 100 μg I.M., 7 days after injection) of the same molecule?
Answer: 10/10

Question: What about the “Role of mouse strain in tolerability” value ([2]; C57BL/6J, BALB/cJ, CD-1 compared) of the same molecule?
Answer: C57BL/6 mice appear to be more sensitive

Question: What about the Deaths ([2]; CD-1 mice, 20 μg I.M., 7 days after injection) of the same molecule?
Answer: 0/10

Question: What about the Deaths ([2]; CD-1 mice, 40 μg I.M., 7 days after injection) of the same molecule?
Answer: 0/10

Question: And the Deaths ([2]; CD-1 mice, 60 μg I.M., 7 days after injection)?
Answer: 0/10

Question: What about the Deaths ([2]; CD-1 mice, 80 μg I.M., 7 days after injection) of the same molecule?
Answer: 0/10

Question: And the Deaths ([2]; CD-1 mice, 100 μg I.M., 7 days after injection)?
Answer: 0/10

Question: What about the “Mortality” value ([2]; all three mouse strains, 20-100 μg I.M., 7 days after injection) of the same molecule?
Answer: at least some mice in the other groups (including QS-21) died

Question: What about the “Deaths (D 7)” value (CD-i mice; with 0.1 μg PR8 HA, 25 μg) of the same molecule?
Answer: 0/10

Question: What about the “Deaths (D 7)” value (CD-i mice; with 0.1 μg PR8 HA, 50 μg) of the same molecule?
Answer: 0/10

Question: And the “Deaths (D 7)” value (CD-i mice; with 0.1 μg PR8 HA, 100 μg)?
Answer: 2/10

Question: And the “Deaths (D 21)” value (CD-i mice; with 0.1 μg PR8 HA, 25 μg)?
Answer: 0/10

Question: What about the “Deaths (D 21)” value (CD-i mice; with 0.1 μg PR8 HA, 50 μg) of the same molecule?
Answer: 0/10

Question: And the “Deaths (D 21)” value (CD-i mice; with 0.1 μg PR8 HA, 100 μg)?
Answer: 0/8

Question: For “2-hydroxypropyl beta-cyclodextrin [HPβCD alone]”, which “Deaths (D 7)” value (CD-i mice; [3]) is on record?
Answer: 0/10

Question: What about the “Deaths (D 7)” value (CD-i mice; [4]) of the same molecule?
Answer: 0/10

Question: And the “Deaths (D 21)” value (CD-i mice; [3])?
Answer: 0/10

Question: What about the “Deaths (D 21)” value (CD-i mice; [4]) of the same molecule?
Answer: 0/10

Question: What about the “Mortality (follow-on studies, text)” value (CD-i mice; mice, TQL-1055 without HP-β-CD, or HP-β-CD without TQL-1055, any dose tested) of the same molecule?
Answer: did not result in mortality

Question: With `CC1O[C@@H](OC2C(O)[C@@H](NC(=O)CCCCCCCCCCC(=O)O)C(CO)O[C@H]2OC(=O)[C@]23CCC(C)(C)CC2C2=CCC4C5(C)CC[C@H](O)[C@](C)(C=O)[C@@H]5CC[C@]4(C)[C@]2(C)CC3O)C(O)C(O)[C@H]1O[C@@H]1OC[C@@H](O)C(O)C1O` (stereo partly drawn) [TQL1055 FA] as the molecule, how does the “Deaths (D 7)” value (CD-i mice; no antigen, 50 μg) read?
Answer: 0/10

Question: What about the “Deaths (D 7)” value (CD-i mice; no antigen, 100 μg) of the same molecule?
Answer: 0/10

Question: And the “Deaths (D 7)” value (CD-i mice; no antigen, 200 μg)?
Answer: 0/10

Question: And the “Deaths (D 7)” value (CD-i mice; with 0.1 μg PR8 HA, 50 μg)?
Answer: 0/10

Question: And the “Deaths (D 7)” value (CD-i mice; with 0.1 μg PR8 HA, 100 μg)?
Answer: 0/10

Question: And the “Deaths (D 7)” value (CD-i mice; with 0.1 μg PR8 HA, 198.68 μg)?
Answer: 0/10

Question: And the “Deaths (D 21)” value (CD-i mice; no antigen, 50 μg)?
Answer: 0/10

Question: What about the “Deaths (D 21)” value (CD-i mice; no antigen, 100 μg) of the same molecule?
Answer: 0/10

Question: What about the “Deaths (D 21)” value (CD-i mice; no antigen, 200 μg) of the same molecule?
Answer: 0/10

Question: And the “Deaths (D 21)” value (CD-i mice; with 0.1 μg PR8 HA, 50 μg)?
Answer: 0/10

Question: What about the “Deaths (D 21)” value (CD-i mice; with 0.1 μg PR8 HA, 100 μg) of the same molecule?
Answer: 0/10

Question: What about the “Deaths (D 21)” value (CD-i mice; with 0.1 μg PR8 HA, 198.68 μg) of the same molecule?
Answer: 0/10

From US20250025550A1, “ADJUVANT COMPOUNDS AND FORMULATIONS” (ADJUVANCE TECHNOLOGIES, INC., priority 2021, published 2025)
